Read-outs that look alike come from different tables or passages of the source.
Tests used:
[1] = test system: IL-1β, human peripheral blood mononuclear cells (PBMC); experiment: PBMC cell assay: IL-1β assay with human PBMC or enriched adherent mononuclear cells, LPS-stimulated; assay type: cell-based
Summary of the method: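 Buffy-coat human PBMC at 6×10^6 cells/ml, or adherent monocytes enriched by 1 h adherence (2.5−3.0×10^5 cells/well), are given 5–6 compound dilutions bracketing the ICE Ki (final DMSO 0.1%) plus LPS at a final 5 ng/ml. They are incubated 16–18 hr at 37 °C, 5% CO2, and supernatant mature IL-1β is measured by ELISA, with duplicate cultures and duplicate ELISAs.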

[2] = test system: IL-1β production, LPS-challenged mice; experiment: In vivo acute assay for efficacy as anti-inflammatory agent: LPS-induced IL-1β production in mice; design: species or system mouse; conditions: LPS challenged mice, 50 mg/kg; for inhibition at 50 mg/kg: Mus musculus, po, compound PO, read-out: percent inhibition of IL-1β production
Summary of the method: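 CD1 mice (n=6) were challenged with LPS 20 mg/kg IP and given compound IP in olive oil:DMSO:ethanol (90:5:5) 1 h after LPS, or at the time of challenge for some analogs. Blood was taken 7 h after LPS and serum IL-1β was measured by ELISA. Oral gavage at 50 mg/kg was also tested.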

[3] = 0 h, administered 0 h relative to time of LPS challenge
[4] = 1 h, administered +1 h relative to time of LPS challenge
[5] = 1 h, administered −1 h relative to time of LPS challenge
[6] = 2 h, administered −2 h relative to time of LPS challenge
[7] = Homo sapiens, PBMC, * = values obtained upon reassay
[8] = PO, * = values obtained in subsequent assays (Table 4)
[9] = * = values obtained upon reassay

| SMILES | IC50 ([1]; Homo sapiens, PBMC, Table 17) [µM] | IC50 [1, 7] [µM] | other results |
| --- | --- | --- | --- |
| O=C1C[C@H](NC(=O)[C@@H]2CCCN3C(=O)CC[C@H](NC(=O)c4ccccc4)C(=O)N23)C(OCCc2ccccc2)O1 (mixture of isomers) [Compound 2100k, [1S,9S(2RS,3S)]9-Benzoylamino-6,10-dioxo-1,2,3,4,7,8,9,10-octahydro-N-(2-phenethyloxy-5-oxotetrahydrofuran-3-yl)-6H-pyridazino[1,2-a][1,2]diazepine-1-carboxamide] | 4 |  | inhibition at 50 mg/kg [2, 3]: 32%; inhibition at 50 mg/kg [2, 4]: 72%; inhibition at 50 mg/kg [2, 5]: 50%; inhibition at 50 mg/kg [2, 6]: 30% |
| O=C1C[C@H](NC(=O)[C@@H]2CCCN3C(=O)CC[C@H](NC(=O)c4ccccc4)C(=O)N23)C(OCc2ccccc2)O1 (single isomer, unassigned) [Compound 2100n] | 0.77 |  | inhibition at 50 mg/kg [2, 3]: 64%; inhibition at 50 mg/kg [2, 4]: 73%; inhibition at 50 mg/kg [2, 5]: 9%; inhibition at 50 mg/kg [2, 6]: 21% |
| CS(=O)(=O)N[C@H]1CCC(=O)N2CCC[C@@H](C(=O)N[C@@H](CC(=O)O)C(=O)COC(=O)c3sccc3Cl)N2C1=O [505 e, [3S(1S,9S)]5-(3-Chlorothien-2-oyloxy)-3-(6,10-dioxo-9-methanesulphonylamino-1,2,3,4,7,8,9,10-octahydro-6H-pyridazino[1,2-a][1,2]diazepine-1-carboxamido)-4-oxopentanoic acid] |  |  | IC50 ([1]; Table 18): 9 µM |
| O=C(O)C[C@H](NC(=O)[C@@H]1CCCN2C(=O)CC[C@H](NC(=O)CCc3ccccc3)C(=O)N12)C(=O)CSCc1ccccc1Cl [Compound 125b, [3S(1S,9S)]-3-(6,10-dioxo-1,2,3,4,7,8,9,10-octahydro)-9-(3-phenylpropionyl-amino)-6H-pyridazine[1,2-a][1,2]diazepine-1-carboxamido-5-(2-chlorophenyl-methylthio)-4-oxopentanoic acid] |  | 0.8 |  |
| O=C(O)C[C@H](NC(=O)[C@@H]1CCCN2C(=O)CC[C@H](NC(=O)CCc3ccccc3)C(=O)N12)C(=O)c1ncc(-c2c(Cl)cccc2Cl)o1 [Compound 137] |  | 1.7 |  |
| O=C1C[C@H](NC(=O)[C@@H]2CCCN3C(=O)CC[C@H](NC(=O)c4ccccc4)C(=O)N23)C(OCc2ccccc2)O1 (stereo partly drawn) [Compound 213e, [1S,9S(2RS,3S)]9-Benzoylamino-6,10-dioxo-1,2,3,4,7,8,9,10-octahydro-N-(2-benzyloxy-5-oxotetrahydrofuran-3-yl)-6H-pyridazino[1,2-a][1,2]-diazepine-1-carboxamide] |  | 0.9 | Inhibition of IL-1β Production, compound administered 0 hr relative to LPS challenge [2, 8]: 41%; Inhibition of IL-1β Production, compound administered +1 hr relative to LPS challenge [2, 8]: 89%; Inhibition of IL-1β Production, compound administered −1 hr relative to LPS challenge [2, 8]: 48%; Inhibition of IL-1β Production, compound administered −2 hr relative to LPS challenge [2, 8]: 0% |
| O=C(O)C[C@H](NC(=O)[C@@H]1CCCN2C(=O)CC[C@H](NC(=O)OCc3ccccc3)C(=O)N12)C(=O)COC(=O)c1c(Cl)cccc1Cl [Compound 217d, [3S(1S,9S)]3-(9-Benzyloxycarbonylamino-6,10-dioxo-1,2,3,4,7,8,9,10-octahydro-6H-pyridazino[1,2-a][1,2]-diazepine-1-carboxamido)-5-(2,6-dichlorobenzoyloxy)-4-oxopentanoic acid] |  | 0.34 |  |
| O=C(O)C[C@H](NC(=O)[C@@H]1CCCN2C(=O)CC[C@H](NC(=O)c3ccccc3)C(=O)N12)C(=O)CSc1nnnn1-c1ccccc1 [Compound 280, [3S(1S,9S)]3-(9-Benzoylamino-6,10-dioxo-1,2,3,4,7,8,9,10-octahydro-6H-pyridazino[1,2-a][1,2]diazepine-1-carboxamido)-4-oxo-5(1-phenyl-1H-tetrazole-5-thio)pentanoic acid] |  | 0.65 |  |
| O=C(O)C[C@H](NC(=O)[C@@H]1CCCN2C(=O)CC[C@H](NC(=O)c3ccccc3)C(=O)N12)C(=O)COc1cccnc1 [Compound 283, [3S(1S,9S)]3-[9-Benzoylamino-6,10-dioxo-1,2,3,4,7,8,9,10-octahydro-6H-pyridazino[1,2-a][1,2]diazepine-1-carboxamido]-4-oxo-5-(3-pyridyloxy)pentanoic acid] |  | < 0.2 |  |
| CS(=O)(=O)N[C@H]1CCC(=O)N2CCC[C@@H](C(=O)N[C@@H](CC(=O)O)C(=O)COC(=O)c3cccc4ccccc34)N2C1=O [Compound 286, [3S(1S,9S)]3-(6,10-Dioxo-9-methanesulphonylamino-1,2,3,4,7,8,9,10-octahydro-6H-pyridazino[1,2-a][1,2]diazepine-1-carboxamido)-5-(1-naphthoyloxy)-4-oxopentanoic acid] |  |  | IC50 ([1]; Table 18): 0.3 µM |
| O=C[C@H](CC(=O)O)NC(=O)[C@@H]1CCCN2C(=O)CC[C@H](NC(=O)c3nccc4ccccc34)C(=O)N12 [Compound 412, [3S(1S,9S)]3-[6,10-Dioxo-9-(isoquinolin-1-oylamino)-1,2,3,4,7,8,9,10-octahydro-6H-pyridazino[1,2-a][1,2]diazepine-1-carboxamido]-4-oxobutanoic acid] |  | 0.58 | IC50 [1, 9]: 0.66 µM |
| Cc1nc(C)c(C(=O)N[C@H]2CCC(=O)N3CCC[C@@H](C(=O)N[C@H](C=O)CC(=O)O)N3C2=O)s1 [Compound 423] |  | 2.1 | IC50 [1, 9]: 1.8 µM |
| O=C[C@H](CC(=O)O)NC(=O)[C@@H]1CCCN2C(=O)CC[C@H](NC(=O)c3cccc(Cl)c3)C(=O)N12 [Compound 455] |  | 0.4 |  |
| CC(C)C(=O)Nc1ccc(C(=O)N[C@H]2CCC(=O)N3CCC[C@@H](C(=O)N[C@H](C=O)CC(=O)O)N3C2=O)cc1 [Compound 484] |  | 1.55 | IC50 [1, 9]: 1.4 µM |
| COCC(=O)N1C[C@H](NC(=O)c2ccccc2)C(=O)N(CC(=O)N[C@H](C=O)CC(=O)O)c2ccccc21 [Compound 605e, (3S)-3-[(3S)-2-Oxo-3-benzoylamino-5-methoxyacetyl-2,3,4,5-tetrahydro-1H-1,5-benzodiazepin-1-acetylamino]-4-oxo-butyric acid] |  | 2.25 |  |
| CC(=O)N1C[C@H](NC(=O)c2cc(C)c(O)c(C)c2)C(=O)N(CC(=O)N[C@H](C=O)CC(=O)O)c2ccccc21 [Compound 671, (3S)-3-[(3S)-2-Oxo-3-(3,5-dimethyl-4-hydroxybenzoyl)amino-5-acetyl-2,3,4,5-tetrahydro-1H-1,5-benzodiazepine-1-acetylamino]-4-oxo-butyric acid] | 2 |  |  |
| Cc1cc(C(=O)N[C@H]2CN(C(=O)CO)c3ccccc3N(CC(=O)N[C@H](C=O)CC(=O)O)C2=O)cc(C)c1O [Compound 691a, (3S)-3-[(3S)-2-Oxo-3-(3,5-dimethyl-4-hydroxybenzoyl)amino-5-hydroxyacetyl-2,3,4,5-tetrahydro-1H-1,5-benzodiazepine-1-acetylamino]-4-oxo-butyric acid] | 2.9 |  |  |
| O=C[C@H](CC(=O)O)NC(=O)CN1C(=O)[C@@H](NC(=O)c2nccc3ccccc23)CN(C(=O)CO)c2ccccc21 [Compound 696, (3S)-3-[(3S)-2-Oxo-3-(isoquinolin-1-oyl)amino-5-hydroxyacetyl-2,3,4,5-tetrahydro-1H-1,5-benzodiazepine-1-acetylamino]-4-oxo-butyric acid] | 2 |  |  |
| CC(=O)Nc1ccc(C(=O)NN2CCC(=O)N3CCC[C@@H](C(=O)N[C@H](C=O)CC(=O)O)N3C2=O)cc1 [Compound 1018, [3S(4S)]3-{7-[(4-Acetamido)benzamido]-6,10-Dioxo-1,2,3,4,7,8,9,10-octahydro-6H-pyridazino[1,2-a][1,2,4]-triazepine-4-carboxamido}-4-oxobutanoic acid] | 4 |  |  |
| O=C[C@H](CC(=O)O)NC(=O)[C@@H]1CCCN2C(=O)CCN(NS(=O)(=O)c3ccccc3)C(=O)N12 [Compound 1027, [3S(4S)]3-(6,10-Dioxo-1,2,3,4,7,8,9,10-octahydro-7-phenylsulphonylamino-6H-pyridazino[1,2-a][1,2,4]triazepine-4-carboxamido)-4-oxobutanoic acid] |  | > 20 |  |
| O=C[C@H](CC(=O)O)NC(=O)[C@@H]1CCCN2C(=O)CCN(NC(=O)c3cc4ccccc4s3)C(=O)N12 [Compound 1053, [3S(4S)]3-[7-(Benzo[b]thiophene-2-carbonyl)amino-6,10-dioxo-1,2,3,4,7,8,9,10-octahydro-6H-pyridazino[1,2-a][1,2,4]triazepine-4-carboxamido]-4-oxobutanoic acid] | 2 |  |  |
| O=C[C@H](CC(=O)O)NC(=O)[C@@H]1CCCN2C(=O)CCN(NC(=O)c3cc4ccccc4[nH]3)C(=O)N12 [Compound 1075, [3S(4S)]3-[6,10-Dioxo-7-(indole-2-carboxamido)-1,2,3,4,7,8,9,10-octahydro-6H-pyridazino[1,2-a][1,2,4]triazepine-4-carboxamido]-4-oxobutanoic acid] | 5 |  |  |
| COCC(=O)N1C[C@H](NC(=O)c2cccc3ccccc23)C(=O)N(CC(=O)N[C@H](C=O)CC(=O)O)c2ccccc21 [Compound 2201, (3S)-3-[(3S)-2-oxo-3-(1-naphthoyl)amino-5-methoxyacetyl-2,3,4,5-tetrahydro-1H-1,5-benzodiazepine-1-acetylamino]4-oxo-butyric acid] |  | 2 | IC50 [1, 9]: 3.7 µM |

From US20120165319A1, “INHIBITORS OF INTERLEUKIN-1 BETA CONVERTING ENZYME” (VERTEX PHARMACEUTICALS INCORPORATED, priority 1995, published 2012)
